PMC9396396, “Molecular and functional interactions of alpha-synuclein with Rab3a” (The Journal of Biological Chemistry, 2022)

System: T1, Rab3a-a-Syn fusion construct
T1 construct: single-chain fusion: 6-His-tag, Rab3a 15-186 (C137A, wild-type Q81), GSGS linker, alpha-synuclein 101-140 (not phosphorylated); pET15b, E. coli; with Alpha-synuclein
Assay: malachite green phosphate release, Michaelis-Menten fit
Type: biochemical
Conditions: pH 7.5, 20 mM Hepes, 2 mM MgCl2, 1 mM DTT, 37 °C; a-Syn C-terminal tail covalently fused; no free a-Syn, no SUV
Text: malachite green phosphate release, Michaelis-Menten fit on Rab3a-a-Syn fusion construct

With `Nc1nc2c(ncn2[C@@H]2O[C@H](COP(=O)(O)OP(=O)(O)OP(=O)(O)O)[C@@H](O)[C@H]2O)c(=O)[nH]1` [GTP] as the compound, how does the Km read?
Its Km is 174 ± 46 µM.
